Values of other authors as cited in patent US20070269404A1, “Controlling Sugar Feeding Insects” (Westham Ltd., priority 2006, published 2007).

Tested on: birds and mammals
Conditions: Williams et al. 2003

Spinosad
toxicity to birds and mammals: very little toxicity
